Reference: PubChem BioAssay (NCI)
Values joined by “and” are separate entries in the source; they are usually repeats but may differ in a detail not shown here. Equal entries are not always repeated.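 Each compound was tested at five concentrations against cells in 96-well plates for 48 hours. At the GI50, growth is halved. TGI is the concentration that stops growth completely.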

Legend:
Assay in all cases: NCI anticancer screen, dose series, 48 h
786-0 renal = tested on: 786-0 renal
A498 renal = tested on: A498 renal
A549 NSCLC = tested on: A549 NSCLC
ACHN renal = tested on: ACHN renal
CAKI-1 renal = tested on: CAKI-1 renal
CCRF-CEM leukemia = tested on: CCRF-CEM leukemia
COLO 205 colon = tested on: COLO 205 colon
EKVX NSCLC = tested on: EKVX NSCLC
HCC-2998 colon = tested on: HCC-2998 colon
HCT-116 colon = tested on: HCT-116 colon
HCT-15 colon = tested on: HCT-15 colon
HOP-62 NSCLC = tested on: HOP-62 NSCLC
HOP-92 NSCLC = tested on: HOP-92 NSCLC
HT29 colon = tested on: HT29 colon
IGROV1 ovarian = tested on: IGROV1 ovarian
K-562 leukemia = tested on: K-562 leukemia
KM12 colon = tested on: KM12 colon
KM20L2 colon = tested on: KM20L2 colon
LOX IMVI melanoma = tested on: LOX IMVI melanoma
M14 melanoma = tested on: M14 melanoma
MALME-3M melanoma = tested on: MALME-3M melanoma
MOLT-4 leukemia = tested on: MOLT-4 leukemia
NCI-H226 lung = tested on: NCI-H226 lung
NCI-H23 lung = tested on: NCI-H23 lung
NCI-H460 lung = tested on: NCI-H460 lung
NCI-H522 lung = tested on: NCI-H522 lung
OVCAR-3 ovarian = tested on: OVCAR-3 ovarian
OVCAR-4 ovarian = tested on: OVCAR-4 ovarian
OVCAR-5 ovarian = tested on: OVCAR-5 ovarian
OVCAR-8 ovarian = tested on: OVCAR-8 ovarian
RPMI-8226 leukemia = tested on: RPMI-8226 leukemia
RXF 393 renal = tested on: RXF 393 renal
SF-268 CNS = tested on: SF-268 CNS
SF-295 CNS = tested on: SF-295 CNS
SF-539 CNS = tested on: SF-539 CNS
SK-MEL-2 melanoma = tested on: SK-MEL-2 melanoma
SK-MEL-28 melanoma = tested on: SK-MEL-28 melanoma
SK-MEL-5 melanoma = tested on: SK-MEL-5 melanoma
SK-OV-3 ovarian = tested on: SK-OV-3 ovarian
SN12C renal = tested on: SN12C renal
SNB-19 CNS = tested on: SNB-19 CNS
SNB-75 CNS = tested on: SNB-75 CNS
SR leukemia = tested on: SR leukemia
SW-620 colon = tested on: SW-620 colon
TK-10 renal = tested on: TK-10 renal
U251 CNS = tested on: U251 CNS
UACC-257 melanoma = tested on: UACC-257 melanoma
UACC-62 melanoma = tested on: UACC-62 melanoma
UO-31 renal = tested on: UO-31 renal
BT-549 breast = tested on: BT-549 breast
DU-145 prostate = tested on: DU-145 prostate
HL-60(TB) leukemia = tested on: HL-60(TB) leukemia
HS 578T breast = tested on: HS 578T breast
MCF7 breast = tested on: MCF7 breast
MDA-MB-231 breast = tested on: MDA-MB-231 breast
MDA-MB-435 = tested on: MDA-MB-435
MDA-N = tested on: MDA-N
NCI/ADR-RES ovarian = tested on: NCI/ADR-RES ovarian
PC-3 prostate = tested on: PC-3 prostate
T-47D breast = tested on: T-47D breast

COc1cccc(/C=N/[N-]C(N)=O)c1[O-].[OH3+].[Pd+2]
TGI (786-0 renal): > 100 µM
TGI (A498 renal): > 100 µM
TGI (A549 NSCLC): > 100 µM
TGI (ACHN renal): > 100 µM
TGI (CAKI-1 renal): > 100 µM
TGI (CCRF-CEM leukemia): > 100 µM
TGI (COLO 205 colon): > 100 µM
TGI (EKVX NSCLC): > 100 µM
TGI (HCC-2998 colon): > 100 µM
TGI (HCT-116 colon): > 100 µM
TGI (HCT-15 colon): > 100 µM
TGI (HOP-62 NSCLC): > 100 µM
TGI (HOP-92 NSCLC): > 100 µM
TGI (HT29 colon): > 100 µM
TGI (IGROV1 ovarian): > 100 µM
TGI (K-562 leukemia): > 100 µM
TGI (KM12 colon): > 100 µM
TGI (KM20L2 colon): > 100 µM
TGI (LOX IMVI melanoma): > 100 µM
TGI (M14 melanoma): > 100 µM
TGI (MALME-3M melanoma): > 100 µM
TGI (MOLT-4 leukemia): > 100 µM
TGI (NCI-H226 lung): > 100 µM
TGI (NCI-H23 lung): > 100 µM
TGI (NCI-H460 lung): > 100 µM
TGI (NCI-H522 lung): > 100 µM
TGI (OVCAR-3 ovarian): > 100 µM
TGI (OVCAR-4 ovarian): > 100 µM
TGI (OVCAR-5 ovarian): > 100 µM
TGI (OVCAR-8 ovarian): > 100 µM
TGI (RPMI-8226 leukemia): > 100 µM
TGI (RXF 393 renal): > 100 µM
TGI (SF-268 CNS): > 100 µM
TGI (SF-295 CNS): > 100 µM
TGI (SF-539 CNS): > 100 µM
TGI (SK-MEL-2 melanoma): > 100 µM
TGI (SK-MEL-28 melanoma): > 100 µM
TGI (SK-MEL-5 melanoma): > 100 µM
TGI (SK-OV-3 ovarian): > 100 µM
TGI (SN12C renal): > 100 µM
TGI (SNB-19 CNS): > 100 µM
TGI (SNB-75 CNS): > 100 µM
TGI (SR leukemia): > 100 µM
TGI (SW-620 colon): > 100 µM
TGI (TK-10 renal): > 100 µM
TGI (U251 CNS): > 100 µM
TGI (UACC-257 melanoma): > 100 µM
TGI (UACC-62 melanoma): > 100 µM
TGI (UO-31 renal): > 100 µM

C=C(Cl)C(Cl)(CBr)CCC(Br)C(C)(C)Cl (centres undefined)
TGI (786-0 renal): 0.9 µM and 1.03 µM and 3.78 µM
TGI (A498 renal): 4.03 µM and 4.02 µM and 6.05 µM
TGI (A549 NSCLC): 9.99 µM and 7.54 µM and 16.7 µM
TGI (ACHN renal): 2.62 µM and 2.63 µM and 3.13 µM
TGI (BT-549 breast): 7.21 µM and 15.7 µM and 9.1 µM
TGI (CAKI-1 renal): 2.36 µM and 1.99 µM and 2.1 µM
TGI (CCRF-CEM leukemia): 45.6 µM and 35 µM and > 100 µM
TGI (COLO 205 colon): 4.02 µM and 7.41 µM and 31.6 µM
TGI (DU-145 prostate): 3.86 µM and 3.1 µM and 7.05 µM
TGI (EKVX NSCLC): 7.36 µM and 4.19 µM and 12.8 µM
TGI (HCC-2998 colon): 6.35 µM and 2.97 µM and 8.14 µM
TGI (HCT-116 colon): 1.77 µM and 1.61 µM and 5.75 µM
TGI (HCT-15 colon): 10.6 µM and 6.12 µM and 27.8 µM
TGI (HL-60(TB) leukemia): 3 µM and 3.02 µM and 6.99 µM
TGI (HOP-62 NSCLC): 1.84 µM and 2.01 µM and 2.76 µM
TGI (HOP-92 NSCLC): 3.5 µM and 2.72 µM and 4.84 µM
GI50 (HS 578T breast): 0.802 µM
TGI (HS 578T breast): 5.25 µM and 5.08 µM and 9.16 µM
TGI (HT29 colon): 2.19 µM and 1.94 µM and 2.1 µM
TGI (IGROV1 ovarian): 27.2 µM and 26.9 µM and 53.1 µM
TGI (K-562 leukemia): 24.4 µM and 10.8 µM and > 92.9 µM
TGI (KM12 colon): 3.57 µM and 2.83 µM and 6.38 µM
TGI (LOX IMVI melanoma): 12.4 µM and 29.7 µM and 33.6 µM
TGI (M14 melanoma): 42.2 µM and 33.5 µM and > 74 µM
TGI (MALME-3M melanoma): 31.9 µM and 21 µM and 30.8 µM
TGI (MCF7 breast): 2.83 µM and 2.09 µM and 8.1 µM
TGI (MDA-MB-231 breast): 2.92 µM and 5.94 µM and 27.2 µM
TGI (MDA-MB-435): 6.56 µM and 4.63 µM and 23.4 µM
TGI (MDA-N): 8.91 µM and 3.02 µM and 21.6 µM
TGI (MOLT-4 leukemia): 59.8 µM and 33.4 µM and 54.3 µM
TGI (NCI-H226 lung): 38.4 µM and 32.5 µM and 37.9 µM
TGI (NCI-H23 lung): 40.7 µM and 33.8 µM and > 70.2 µM
TGI (NCI-H460 lung): 3.66 µM and 2.93 µM and 5.82 µM
TGI (NCI-H522 lung): 34.9 µM and 27.1 µM and 28.9 µM
TGI (NCI/ADR-RES ovarian): 7.18 µM and 4.48 µM and 33.2 µM
TGI (OVCAR-3 ovarian): 3.09 µM and 1.96 µM and 4.78 µM
TGI (OVCAR-4 ovarian): 7.93 µM and 4.62 µM and 31.9 µM
TGI (OVCAR-5 ovarian): 8.38 µM and 4.14 µM and 29.8 µM
TGI (OVCAR-8 ovarian): 5.15 µM and 2.59 µM and 17 µM
TGI (PC-3 prostate): 2.42 µM and 2.17 µM and 3.02 µM
TGI (RPMI-8226 leukemia): 1.33 µM and 1.56 µM and 3.22 µM
TGI (RXF 393 renal): 3.92 µM and 0.991 µM and 4.49 µM
TGI (SF-268 CNS): 3.13 µM and 1.97 µM and 9.92 µM
TGI (SF-295 CNS): 3.53 µM and 3.04 µM and 3.7 µM
TGI (SF-539 CNS): 1.12 µM and 2.69 µM and 3.68 µM
TGI (SK-MEL-2 melanoma): 4.17 µM
TGI (SK-MEL-28 melanoma): 8.93 µM and 3.51 µM and 24.1 µM
TGI (SK-MEL-5 melanoma): 25.4 µM and 25.2 µM and 28.3 µM
TGI (SK-OV-3 ovarian): 62.7 µM
TGI (SN12C renal): 21.9 µM and 19.3 µM and 28.1 µM
TGI (SNB-19 CNS): 5.54 µM and 4.55 µM and 10.1 µM
TGI (SNB-75 CNS): 7.12 µM and 1.69 µM and 6.97 µM
TGI (SR leukemia): 61.2 µM and 26.5 µM and 33.9 µM
TGI (SW-620 colon): 6.08 µM and 4.35 µM and 27.7 µM
TGI (T-47D breast): 2.99 µM and 5.16 µM and 1.25 µM
TGI (TK-10 renal): 3.64 µM and 3.87 µM and 7.61 µM
TGI (U251 CNS): 2.08 µM and 0.925 µM and 2.71 µM
TGI (UACC-257 melanoma): 6.07 µM and 3.81 µM and 14.1 µM
TGI (UACC-62 melanoma): 12 µM and 15.2 µM and 2.68 µM
TGI (UO-31 renal): 3.71 µM and 3.73 µM and 11.3 µM
